Measurements as given in PubChem BioAssay (NCI).
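All cell lines were grown in 96-well plates and treated with compound for 48 hours. TGI is the concentration that stops growth completely.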

Columns and labels:
Assay in all cases: growth of human tumour cells (NCI), 48 h
K-562 leukemia = tested on: K-562 leukemia
786-0 renal = tested on: 786-0 renal
SNB-75 CNS = tested on: SNB-75 CNS
MALME-3M melanoma = tested on: MALME-3M melanoma
MOLT-4 leukemia = tested on: MOLT-4 leukemia
HOP-62 NSCLC = tested on: HOP-62 NSCLC
SK-MEL-2 melanoma = tested on: SK-MEL-2 melanoma
NCI-H23 lung = tested on: NCI-H23 lung
SF-268 CNS = tested on: SF-268 CNS
HCT-15 colon = tested on: HCT-15 colon
SK-MEL-28 melanoma = tested on: SK-MEL-28 melanoma
HOP-92 NSCLC = tested on: HOP-92 NSCLC
SK-OV-3 ovarian = tested on: SK-OV-3 ovarian
NCI-H226 lung = tested on: NCI-H226 lung
HS 578T breast = tested on: HS 578T breast
PC-3 prostate = tested on: PC-3 prostate
MDA-MB-435 = tested on: MDA-MB-435

Row | Structure (SMILES) | TGI (K-562 leukemia) [µM] | TGI (786-0 renal) [µM] | TGI (SNB-75 CNS) [µM] | TGI (MALME-3M melanoma) [µM] | TGI (MOLT-4 leukemia) [µM] | TGI (HOP-62 NSCLC) [µM] | TGI (SK-MEL-2 melanoma) [µM] | TGI (NCI-H23 lung) [µM] | TGI (SF-268 CNS) [µM] | TGI (HCT-15 colon) [µM] | TGI (SK-MEL-28 melanoma) [µM] | TGI (HOP-92 NSCLC) [µM] | TGI (SK-OV-3 ovarian) [µM] | TGI (NCI-H226 lung) [µM] | TGI (HS 578T breast) [µM] | TGI (PC-3 prostate) [µM] | TGI (MDA-MB-435) [µM]
1 | COc1ccc2c(c1)OC(c1ccccc1O)CC2=O (stereo not given) | > 100 | > 100 | > 100 | > 100 | > 100 | > 100 | 77.5 | > 100 | > 100 | > 100 | > 100 |  |  |  |  |  | 
2 | COC(=O)N/N=C(/Cc1occc(=O)c1O)C(=O)Nc1ccc([N+](=O)[O-])cc1[N+](=O)[O-] | > 100 | > 100 | > 100 | > 100 | > 100 | > 100 | > 100 | > 100 | > 100 | > 100 | > 100 | > 100 | > 100 | > 100 |  |  | 
3 | O=C1NC2C(CCO)CC=C[C@H]2c2cc3c(cc21)OCO3 (stereo not given in full) | > 100 | > 100 | > 100 | > 100 | > 100 | > 100 |  | > 100 | > 100 | > 100 | > 100 |  | > 100 | > 100 |  |  | 
4 | Cn1c(=O)n2n(c1=O)[C@@H](c1ccccc1)[C@H]2c1ccccc1 | > 100 | > 100 | > 100 | > 100 | > 100 | > 100 | > 100 | > 100 |  | > 100 | > 100 | > 100 | > 100 | > 100 | > 100 | > 100 | 
5 | CCN(CC)CCCNc1ncc(C)c2c1c1ccc3c(O)cccc3c1n2C | 4.64 | 2.19 | 6.74 | 34.7 | 1.84 | 2.58 | 33.8 | 4.82 | 36.6 |  | 17.5 | 26.6 | 16.6 | 26.2 |  | 2.16 | 33.8
6 | CCc1ccccc1NC(=O)C(=O)CC(=O)c1sc(Nc2ccccc2Cl)nc1C | > 100 | 90.9 |  |  | 49.8 | > 100 | 56.1 | > 100 | > 100 | 92 | > 100 |  | 63.3 | > 100 | > 100 | > 100 | 66.4
7 | CC1(O)Oc2ccc3ccccc3c2C=C1C(N)=O (stereo not given) | > 100 | > 100 | > 100 |  | > 100 | > 100 | > 100 | > 100 | > 100 | > 100 | > 100 | > 100 | > 100 |  | > 100 | > 100 | > 100
8 | COC1=CC(=O)C2C(C1=O)C(c1ccc(OC)c(OC)c1)[C@H]2C (stereo not given in full) | 54.4 | 31.9 | > 100 | 35.3 | 31.3 | > 100 | > 100 | 42.9 | > 100 | 34.5 | 39.3 | 36.6 | > 100 | > 100 |  |  | 
9 | C/C(=N/NC(N)=S)C(CN(C)C)C(C1=C(O)c2ccccc2OC1)c1ccccc1 (stereo not given) | > 100 | > 100 | > 100 | > 100 | > 100 | > 100 | > 100 | > 100 | > 100 | > 100 | > 100 |  | > 100 | > 100 |  |  | 
10 | CN(C)c1nc(=NCc2cccnc2)ss1 | > 10 | > 10 | > 10 | > 10 | > 10 | > 10 |  | > 10 | > 10 | > 10 | > 10 | > 10 | > 10 |  |  | > 10 | > 10
11 | CCOC(=O)c1ccc(Nc2nc3cc(C(F)(F)F)ccc3nc2C(=O)OCC)cc1 | > 100 | 87 | > 100 |  | > 100 | 65.2 |  | > 100 | > 100 | > 100 | > 100 | > 100 | > 100 |  | > 100 | > 100 | > 100
12 | O=C(N/N=C(\c1nc2ccc(Cl)cc2[nH]c1=O)C(O)c1ccccc1Cl)c1ccncc1 (stereo not given) | > 100 | > 100 | > 100 | > 100 | > 100 |  | > 100 | > 100 | > 100 | > 100 | > 100 | > 100 | > 100 | > 100 |  |  | 
13 | OC(CC(O)(C(F)(F)F)C(F)(F)F)C(O)c1ccco1 (stereo not given) | > 10 | > 10 | > 10 | > 10 | > 10 | > 10 | > 10 | > 10 | > 10 | > 10 | > 10 |  | > 10 | > 10 | > 10 | > 10 | > 10
14 | COc1ccc(-n2sc3ncc([N+](=O)[O-])cc3c2=O)cc1 |  | > 100 | > 100 | > 100 | > 100 | > 100 | > 100 | > 100 | > 100 | > 100 | > 100 |  | > 100 | > 100 | > 100 | > 100 | > 100
15 | Cc1ccc(C2SCC(=O)N2NC(=O)c2ccncc2)s1 (stereo not given) | > 100 | > 100 |  | > 100 | > 100 | > 100 | > 100 | > 100 | > 100 | > 100 | > 100 | > 100 | > 100 | > 100 |  | > 100 | > 100
